The test system of this test is HUVEC. The experiment in a line: Human Umbilical Vein Endothelial Cell (HUVEC) proliferation assay (BrdU incorporation). It is filed as cell-based. The settings on record: VEGF-stimulated HUVEC, 72 hrs, read-out: Inhibition of HUVEC proliferation IC50. The protocol:
Human Umbilical Vein Endothelial Cell (HUVEC) Proliferation Assay (BrdU Incorporation) Materials
HUVEC cells and EGM-MV (Endothelial cell growth medium—microvascular) were purchased from Clonetics (San Diego, Calif.). VEGF and bFGF were purchased from R&D Systems (Minneapolis, Minn.). Anti-BrdU antibody was obtained from Chemicon International (Temecula, Calif.).
HUVECs were routinely maintained in EGM-MV medium and were used within passage 7. HUVECs were plated at a density of 2500 cells/well in M199 medium containing 5% FBS (Hyclone) in type I collagen coated plate (Becton Dickinson). The plate was incubated at 37° C. overnight. The medium was removed by aspiration, and test compounds were added to each well in a volume of 0.1 ml/well in serum-free M199 medium. Compound concentrations ranged from 1.5 nM to 30 micromolar. The plate was incubated for 30 min at 37° C. Another 0.1 ml of serum-free M199 medium containing BSA and VEGF (or bFGF) was added to give a final concentration of 0.1% BSA and 10 ng/ml VEGF (0.3 ng/ml bFGF). The plate was incubated at 37° C. for 72 hrs. BrdU was added to each well after the first 48 hrs to give a concentration of 10 micromolar. The calorimetric ELISA assay was performed according to manufacturer's (Roche Molecular Sciences) instructions, with detection by absorbance reading at 450 nm. Results were plotted as concentration of test compound vs. absorbance to give an IC50 value for inhibition of BrdU incorporation.

The structures appear in SMILES notation. Counter-ions that a name gives are not always drawn. Some results are limits rather than exact numbers.

As for `CCS(=O)(=O)c1ccc(OC)c(Nc2nccc(N(C)c3ccc4c(C)n(C)nc4c3)n2)c1` [Example 40, N^4-(2,3-dimethyl-2H-indazol-6-yl)-N^2-[5-(ethylsulfonyl)-2-methoxyphenyl]-N^4-methyl-2,4-pyrimidinediamine], the IC50 fell in the range of 1 to 200 nM. For `COc1ccc(S(=O)(=O)CC(C)C)cc1Nc1nccc(Nc2ccc3c(C)n[nH]c3c2)n1` [Example 30, N^2-[5-(isobutylsulfonyl)-2-methoxyphenyl]-N^4-(3-methyl-1H-indazol-6-yl)-2,4-pyrimidinediamine] the value was 501 to 1000 nM; for `C#CCN(c1ccc2c(C)n[nH]c2c1)c1ccnc(Nc2cccc(S(N)(=O)=O)c2)n1` [Example 51, 3-({4-[(3-methyl-1H-indazol-6-yl)(2-propynyl)amino]-2-pyrimidinyl}amino)benzenesulfonamide], 201 to 500 nM; for `CNS(=O)(=O)c1ccc(OC)c(Nc2ncc(F)c(N(C)c3ccc4c(C)n[nH]c4c3)n2)c1` [Example 2, 3-({5-fluoro-4-[methyl(3-methyl-1H-indazol-6-yl)amino]-2-pyrimidinyl}amino)-4-methoxy-N-methylbenzenesulfonamide], 1 to 200 nM. `CNS(=O)(=O)Cc1ccc(Nc2ncc(F)c(N(C)c3ccc4c(C)n[nH]c4c3)n2)cc1` [Example 11, [4-({5-fluoro-4-[methyl(3-methyl-1H-indazol-6-yl)amino]-2-pyrimidinyl}amino)phenyl]-N-methylmethanesulfonamide]: the IC50 fell in the range of 201 to 500 nM. With `CCn1nc2cc(N(C)c3ccnc(Nc4cccc(S(N)(=O)=O)c4)n3)ccc2c1C` [Example 76, 3-({4-[(2-ethyl-3-methyl-2H-indazol-6-yl)(methyl)amino]pyrimidin-2-yl}amino)benzenesulfonamide] the figure was 1 to 200 nM; with `COc1ccc(S(N)(=O)=O)cc1Nc1nccc(Nc2ccc3c(C)n[nH]c3c2)n1` [Example 34, 4-methoxy-3-({4-[(3-methyl-1H-indazol-6-yl)amino]-2-pyrimidinyl}amino)benzenesulfonamide], 201 to 500 nM; with `Cc1n[nH]c2cc(N(C)c3ccnc(Nc4ccc(S(N)(=O)=O)c(Cl)c4)n3)ccc12` [Example 61, 2-chloro-4-({4-[methyl(3-methyl-1H-indazol-6-yl)amino]-2-pyrimidinyl}amino)benzenesulfonamide], 201 to 500 nM. In the case of `Cc1n[nH]c2cc(N(CC#N)c3ccnc(Nc4ccc(CS(C)(=O)=O)cc4)n3)ccc12` [Example 44, [(3-methyl-1H-indazol-6-yl)(2-{4-[(methylsulfonyl)methyl]anilino}-4-pyrimidinyl)amino]acetonitrile], the IC50 was 201 to 500 nM. For `COc1ccc(C(N)=O)cc1Nc1ncc(F)c(N(C)c2ccc3c(C)n[nH]c3c2)n1` [Example 13, 3-({5-fluoro-4-[methyl(3-methyl-1H-indazol-6-yl)amino]-2-pyrimidinyl}amino)-4-methoxybenzamide], the IC50 was in the range of 201 to 500 nM. For `Cc1n[nH]c2cc(N(C)c3ccnc(Nc4cccc(CS(=O)(=O)C(C)C)c4)n3)ccc12` [Example 28, N^2-{3-[(isopropylsulfonyl)methyl]phenyl}-N^4-methyl-N^4-(3-methyl-1H-indazol-6-yl)-2,4-pyrimidinediamine] the value was 1 to 200 nM; for `Cc1ccc(Nc2ncc(F)c(N(C)c3ccc4c(C)n[nH]c4c3)n2)cc1NS(C)(=O)=O` [Example 6, N-[5-({5-fluoro-4-[methyl(3-methyl-1H-indazol-6-yl)amino]-2-pyrimidinyl}amino)-2-methylphenyl]methanesulfonamide], 201 to 500 nM. With `COc1cc(S(N)(=O)=O)ccc1Nc1ncc(F)c(N(C)c2ccc3c(C)n[nH]c3c2)n1` [Example 14, 4-({5-fluoro-4-[methyl(3-methyl-1H-indazol-6-yl)amino]-2-pyrimidinyl}amino)-3-methoxybenzenesulfonamide] the figure was 1 to 200 nM; with `Cc1n[nH]c2cc(N(C)c3ccnc(Nc4cc(S(C)(=O)=O)ccc4F)n3)ccc12` [Example 67, N^2-[2-fluoro-5-(methylsulfonyl)phenyl]-N^4-methyl-N^4-(3-methyl-1H-indazol-6-yl)-2,4-pyrimidinediamine], 201 to 500 nM. As for `Cc1n[nH]c2cc(N(C)c3ccnc(Nc4ccc(S(N)(=O)=O)cc4)n3)ccc12` [Example 52, 4-({4-[methyl(3-methyl-1H-indazol-6-yl)amino]-2-pyrimidinyl}amino)benzenesulfonamide], the IC50 is 1 to 200 nM. For `Cc1n[nH]c2cc(N(C)c3ccnc(Nc4cccc(S(=O)(=O)NC(C)C)c4)n3)ccc12` [Example 24, N-isopropyl-3-({4-[methyl(3-methyl-1H-indazol-6-yl)amino]-2-pyrimidinyl}amino)benzenesulfonamide] the value was 1 to 200 nM. Regarding `Cc1ccc(Nc2nccc(N(C)c3ccc4c(C)n[nH]c4c3)n2)cc1S(N)(=O)=O` [Example 64, 2-methyl-5-({4-[methyl(3-methyl-1H-indazol-6-yl)amino]-2-pyrimidinyl}amino)benzenesulfonamide], the IC50 lay in the range of 1 to 200 nM.

As to `CCN(c1ccc2c(C)n[nH]c2c1)c1ccnc(Nc2cccc(NC(C)=O)c2)n1` [Example 32, N-[3-({4-[ethyl(3-methyl-1H-indazol-6-yl)amino]-2-pyrimidinyl}amino)phenyl]acetamide], the IC50 lay in the range of 1 to 200 nM. Regarding `Cc1n[nH]c2cc(N(C)c3ccnc(Nc4cccc(C(N)=O)c4)n3)ccc12` [Example 56, 3-({4-[methyl(3-methyl-1H-indazol-6-yl)amino]-2-pyrimidinyl}amino)benzamide], the IC50 lay in the range of 1 to 200 nM. Consider `CC(=O)Nc1ccc(Nc2ncnc(N(C)c3ccc4c(C)n[nH]c4c3)n2)cc1` [Example 20, N-[4-({4-[methyl(3-methyl-1H-indazol-6-yl)amino]-1,3,5-triazin-2-yl}amino)phenyl]acetamide hydrochloride], for which the IC50 is > 1000 nM. For `Cc1n[nH]c2cc(N(C)c3ccnc(Nc4cccc(S(=O)(=O)NC5CC5)c4)n3)ccc12` [Example 25, N-cyclopropyl-3-({4-[methyl(3-methyl-1H-indazol-6-yl)amino]-2-pyrimidinyl}amino)benzenesulfonamide] the value was 1 to 200 nM; for `C#CCN(c1ccc2c(C)n[nH]c2c1)c1ccnc(Nc2cccc(CS(C)(=O)=O)c2)n1` [Example 50], 201 to 500 nM.

In the case of `Cc1ccc(Nc2nccc(N(C)c3ccc4c(C)n(C)nc4c3)n2)cc1S(N)(=O)=O` [Example 69, 5-({4-[(2,3-dimethyl-2H-indazol-6-yl)(methyl)amino]pyrimidin-2-yl}amino)-2-methylbenzenesulfonamide], the IC50 lay in the range of 1 to 200 nM. For `CCS(=O)(=O)c1ccc(OC)c(Nc2ncc(F)c(N(C)c3ccc4c(C)n[nH]c4c3)n2)c1` [Example 1, N^2-[5-(ethylsulfonyl)-2-methoxyphenyl]-5-fluoro-N^4-methyl-N^4-(3-methyl-1H-indazol-6-yl)-2,4-pyrimidinediamine] the value was 201 to 500 nM; for `CN(c1ccc2c(c1)nc(Cc1ccccc1)n2C)c1ccnc(Nc2cccc(S(N)(=O)=O)c2)n1` [Example 75, 3-({4-[(2-benzyl-1-methyl-1H-benzimidazol-5-yl)(methyl)amino]pyrimidin-2-yl}amino)benzenesulfonamide], 1 to 200 nM; for `Cc1n[nH]c2cc(Nc3ncnc(Nc4cccc(CS(C)(=O)=O)c4)n3)ccc12` [Example 15, N^2-(3-methyl-1H-indazol-6-yl)-N^4-{3-[(methylsulfonyl)methyl]phenyl}-1,3,5-triazine-2,4-diamine trifluoroacetate], 501 to 1000 nM. With `COc1ccc(S(N)(=O)=O)cc1Nc1nccc(N(C)c2ccc3c(C)n[nH]c3c2)n1` [Example 54, 4-methoxy-3-({4-[methyl(3-methyl-1H-indazol-6-yl)amino]-2-pyrimidinyl}amino)benzenesulfonamide], the IC50 is 1 to 200 nM. In the case of `Cc1n[nH]c2cc(N(C)c3ccnc(Nc4cccc(S(N)(=O)=O)c4)n3)ccc12` [Example 21, 3-({4-[methyl(3-methyl-1H-indazol-6-yl)amino]-2-pyrimidinyl}amino)benzenesulfonamide hydrochloride], the IC50 was 1 to 200 nM. Regarding `CNS(=O)(=O)c1ccc(OC)c(Nc2nccc(N(C)c3ccc4c(C)n[nH]c4c3)n2)c1` [Example 47, 4-methoxy-N-methyl-3-({4-[methyl(3-methyl-1H-indazol-6-yl)amino]-2-pyrimidinyl}amino)benzenesulfonamide], the IC50 lay in the range of 201 to 500 nM. For `COc1ccc(S(=O)(=O)C(C)C)cc1Nc1ncc(F)c(N(C)c2ccc3c(C)n[nH]c3c2)n1` [Example 5, 5-fluoro-N^2-[5-(isopropylsulfonyl)-2-methoxyphenyl]-N^4-methyl-N^4-(3-methyl-1H-indazol-6-yl)-2,4-pyrimidinediamine], the IC50 lay in the range of 201 to 500 nM.

On to `CCS(=O)(=O)c1ccc(OC)c(Nc2nccc(N(c3ccc4c(C)n[nH]c4c3)C(C)C)n2)c1` [Example 36, N^2-[5-(ethylsulfonyl)-2-methoxyphenyl]-N^4-isopropyl-N^4-(3-methyl-1H-indazol-6-yl)-2,4-pyrimidinediamine], for which the IC50 was > 1000 nM.

(Values after US8114885B2, “Chemical compounds” (GlaxoSmithKline LLC, priority 2000, dated 2012).)
